In ChEMBL document CHEMBL1152463 (Antimicrob Agents Chemother, 2008):
Values after ≈ are worked out from the molar mass of the structure shown. Active and inactive are the calls of the source. The rule behind the calls is not given here.

Assays:
Leishmania donovani [1] = assay: Antileishmanial activity against Leishmania donovani MHOH/IN/1983/AD83 promastigotes assessed as inhibition of calcium uptake; format: functional, organism-based
Mus musculus [2] = assay: Toxicity in BALB/c mouse at 10 mg/kg, po; format: organism-based; parameters: dose 10 mg/kg, route oral; conditions: in vivo
Leishmania donovani [3] = assay: Antileishmanial activity against Leishmania donovani MHOH/IN/1983/AD83 promastigotes assessed as cell killing at 30 ug/mL after 2 hrs by MTT assay relative to control; format: functional
Leishmania donovani [4] = assay: Antileishmanial activity against Leishmania donovani MHOH/IN/1983/AD83 promastigotes assessed as viability after 2 hrs by MTT assay; format: functional, organism-based; conditions: MHOH/IN/1983/AD83, 2 h
Leishmania donovani [5] = assay: Antileishmanial activity against Leishmania donovani MHOH/IN/1983/AD83 amastigotes infected in BALB/c mouse peritoneal macrophage assessed as cell killing at 15 ug/mL treated 6 hrs after infection measured after 48 hrs using Giemsa staining relative to control; format: functional
Leishmania donovani [6] = assay: Antileishmanial activity against Leishmania donovani MHOH/IN/1983/AD83 amastigotes infected in BALB/c mouse peritoneal macrophage at 3 ug/mL treated 6 hrs after infection measured after 48 hrs using Giemsa staining relative to control; format: functional
Leishmania donovani [7] = assay: Antileishmanial activity against Leishmania donovani MHOH/IN/1983/AD83 amastigotes infected in BALB/c mouse peritoneal macrophage treated 6 hrs after infection measured after 48 hrs using Giemsa staining relative to control; format: functional, organism-based
Mus musculus [8] = assay: Toxicity in BALB/c mouse assessed as kidney function at 10 mg/kg, po; format: organism-based; parameters: dose 10 mg/kg, route oral; conditions: in vivo
Leishmania donovani [9] = assay: Antileishmanial activity against Leishmania donovani MHOH/IN/1983/AD83 promastigotes assessed as increase in caspase 3 like activation in parasite cytosol at 3 to 30 ug/mL after 2 hrs by spectrofluorimetric analysis; format: functional, organism-based
Mus musculus [10] = assay: Toxicity in BALB/c mouse assessed as liver function at 10 mg/kg, po; format: organism-based; parameters: dose 10 mg/kg, route oral; conditions: in vivo
[11] = Toxicity in BALB/c mouse peritoneal macrophage assessed as toxic dose; format: cell-based; conditions: peritoneal macrophage cell
Leishmania donovani [12] = assay: Antileishmanial activity against Leishmania donovani MHOH/IN/1983/AD83 promastigotes assessed as growth inhibition after 3 days by MTT assay; format: functional, organism-based; conditions: MHOH/IN/1983/AD83, 72 h
Mus musculus [13] = assay: Toxicity in BALB/c mouse assessed as heart function at 10 mg/kg, po; format: organism-based; parameters: dose 10 mg/kg, route oral; conditions: in vivo
Leishmania donovani [14] = assay: Antileishmanial activity against Leishmania donovani MHOH/IN/1983/AD83 promastigotes assessed as decrease in rate of oxygen consumption at 30 ug/mL after 2 hrs by polarographically with Clark electrode; format: functional; parameters: scale not given: the % may be the effect or the level left

| SMILES | Activity (Leishmania donovani [1]) | Activity (Mus musculus [2]) | Activity (Leishmania donovani [3]) [%] | EC50 (Leishmania donovani [4]) [µg/mL] | Activity (Leishmania donovani [5]) [%] | Activity (Leishmania donovani [6]) [%] | Activity (Leishmania donovani [7]) | IC50 (Leishmania donovani [7]) [µg/mL] | Activity (Mus musculus [8]) | Activity (Leishmania donovani [9]) | Activity (Mus musculus [10]) | Activity [11] [µg/mL] | IC50 (Leishmania donovani [12]) [µg/mL] | Activity (Mus musculus [13]) | Activity (Leishmania donovani [14]) [%] |
| --- | --- | --- | --- | --- | --- | --- | --- | --- | --- | --- | --- | --- | --- | --- | --- |
| COc1ccc(CCN(C)CCCC(C#N)(c2ccc(OC)c(OC)c2)C(C)C)cc1OC (stereo unspecified) | Active |  |  |  |  |  |  |  |  |  |  |  |  |  |  |
| COc1ccc([C@@H]2Sc3ccccc3N(CCN(C)C)C(=O)[C@@H]2OC(C)=O)cc1 | Active |  |  |  |  |  |  |  |  |  |  |  |  |  |  |
| CCOC(=O)C1=C(COCCN)NC(C)=C(C(=O)OC)C1c1ccccc1Cl (stereo unspecified) [AMLODIPINE] | Active | Non-toxic | 98.76 | 2 (≈ 4.89 µM) | 96.39 | >50 | Dose-dependent effect | 2.1 (≈ 5.14 µM) | Non-toxic | Active | Non-toxic | > 100 | 0.085 (≈ 0.208 µM) | Non-toxic |  |
| CCOC(=O)C1=C(C)NC(C)=C(C(=O)OCC)C1c1ccccc1/C=C/C(=O)OC(C)(C)C [LACIDIPINE] | Active | Non-toxic | 90.5 | 2.5 (≈ 5.49 µM) | 85.66 | >50 | Dose-dependent effect | 2.8 (≈ 6.15 µM) | Non-toxic | Active | Non-toxic | 150 | 1.45 (≈ 3.18 µM) | Non-toxic | 78 |
